# Key:
# Test in all cases: relative viability (nuclei count vs DMSO), 5 days (fraction); higher = more cells survive
# AZ505 + Linsitinib = compound: C1CCC(CC1)N(CCNCCC2=C3C(=C(C=C2)O)NC(=O)CO3)C(=O)CCNCCC4=CC(=C(C=C4)Cl)Cl [AZ505] + C[C@]1(O)C[C@@H](c2nc(-c3ccc4ccc(-c5ccccc5)nc4c3)c3c(N)nccn32)C1 [Linsitinib] (partner 1 µM)
# Summary of the method: (§1)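 Lung cancer cell lines were seeded in 1536-well plates and dosed by pin tool the next day, with either a single drug or a fixed anchor-drug dose combined with five library-drug doses (not always all listed) spaced in √10 steps. Five days later, one step fixed the cells and stained their nuclei (final 0.05% Triton X-100, 1% formaldehyde, 1 ug/ml Hoechst), and nuclei were counted on 4× images. Relative viability is the nuclei count in treated wells divided by the count in vehicle wells, and each value is the median of duplicate plates.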
# AZ505 + Crizotinib = compound: C1CCC(CC1)N(CCNCCC2=C3C(=C(C=C2)O)NC(=O)CO3)C(=O)CCNCCC4=CC(=C(C=C4)Cl)Cl [AZ505] + C[C@@H](Oc1cc(-c2cnn(C3CCNCC3)c2)cnc1N)c1c(Cl)ccc(F)c1Cl [Crizotinib] (partner 1 µM)
# Summary of the method: as §1
# Dactolisib + Pictilisib = compound: Cn1c(=O)n(-c2ccc(C(C)(C)C#N)cc2)c2c3cc(-c4cnc5ccccc5c4)ccc3ncc21 [Dactolisib] + CS(=O)(=O)N1CCN(Cc2cc3nc(-c4cccc5[nH]ncc45)nc(N4CCOCC4)c3s2)CC1 [Pictilisib] (partner 1 µM)
# Summary of the method: as §1
# AZ505 + Foretinib = compound: C1CCC(CC1)N(CCNCCC2=C3C(=C(C=C2)O)NC(=O)CO3)C(=O)CCNCCC4=CC(=C(C=C4)Cl)Cl [AZ505] + COc1cc2c(Oc3ccc(NC(=O)C4(C(=O)Nc5ccc(F)cc5)CC4)cc3F)ccnc2cc1OCCCN1CCOCC1 [Foretinib] (partner 0.25 µM)
# Summary of the method: as §1
Cell Line,relative viability (AZ505 + Linsitinib; first compound 0.08 µM),relative viability (AZ505 + Linsitinib; first compound 0.253 µM),relative viability (AZ505 + Linsitinib; first compound 0.8 µM),relative viability (AZ505 + Linsitinib; first compound 2.53 µM),relative viability (AZ505 + Linsitinib; first compound 8 µM),relative viability (AZ505 + Crizotinib; first compound 0.08 µM),relative viability (AZ505 + Crizotinib; first compound 0.253 µM),relative viability (AZ505 + Crizotinib; first compound 0.8 µM),relative viability (AZ505 + Crizotinib; first compound 2.53 µM),relative viability (AZ505 + Crizotinib; first compound 8 µM),relative viability (Dactolisib + Pictilisib; first compound 0.002 µM),relative viability (Dactolisib + Pictilisib; first compound 0.006325 µM),relative viability (Dactolisib + Pictilisib; first compound 0.02 µM),relative viability (Dactolisib + Pictilisib; first compound 0.06325 µM),relative viability (Dactolisib + Pictilisib; first compound 0.2 µM),relative viability (AZ505 + Foretinib; first compound 0.08 µM),relative viability (AZ505 + Foretinib; first compound 0.253 µM),relative viability (AZ505 + Foretinib; first compound 0.8 µM),relative viability (AZ505 + Foretinib; first compound 2.53 µM),relative viability (AZ505 + Foretinib; first compound 8 µM)
NCI-H838,0.965,1.03,1.02,0.997,0.928,0.773,0.841,0.809,0.824,0.743,0.351,0.302,0.239,0.204,0.218,0.983,1.01,0.994,0.965,1.01
HARA,0.897,0.894,0.695,0.737,0.773,0.954,0.89,0.896,0.909,0.948,0.469,0.34,0.366,0.277,0.236,0.85,0.963,0.766,0.709,0.633
NCI-H2087,0.986,0.846,0.986,0.932,0.973,0.683,0.743,0.998,0.752,0.838,1.02,0.867,0.714,0.463,0.336,1.12,1.02,0.997,1.14,1.21
NCI-H1437,1.02,1.15,1.08,1.08,1.03,0.801,0.852,0.863,0.927,0.895,0.452,0.421,0.371,0.268,0.165,1.16,1.26,1.21,1.29,1.18
NCI-H650,0.847,0.739,0.897,1.15,0.921,0.604,0.749,0.698,0.642,0.758,0.86,0.771,0.704,0.558,0.451,1.01,1.14,1.06,1.08,1.01
COR-L23,0.684,0.772,0.749,0.855,0.692,0.42,0.621,0.518,0.567,0.385,0.925,0.656,0.546,0.177,0.151,0.878,0.928,0.909,0.863,0.975
COR-L 105,0.703,1.05,0.761,0.779,1.01,0.579,0.964,0.75,0.963,0.793,0.423,0.364,0.377,0.332,0.305,0.76,1.29,0.981,0.862,0.903
LK-2,0.408,0.703,0.578,0.427,0.812,0.234,0.237,0.211,0.21,0.215,0.479,0.547,0.499,0.33,0.251,1.28,1.34,1.18,1.08,1.68
201T,1.03,0.98,0.993,1.01,0.968,0.986,1.03,0.932,1.01,1.02,0.753,0.661,0.661,0.538,0.539,1.01,1.14,1.07,1.06,1.19
NCI-H596,0.953,0.932,0.933,1,0.908,0.922,0.495,0.799,0.972,0.985,0.373,0.348,0.383,0.352,0.299,0.746,0.897,0.805,0.897,0.731
H3255,0.836,1,0.918,0.983,0.929,0.702,0.854,0.904,0.913,0.918,0.513,0.44,0.473,0.35,0.339,0.81,1.05,0.924,0.872,1.19
NCI-H647,1.08,1.36,1.04,1.29,1.22,0.941,1.15,0.993,0.957,1.25,0.448,0.407,0.409,0.227,0.151,1.22,1.37,0.963,1.19,1.12
NCI-H2023,0.685,0.626,0.669,0.814,0.552,0.641,0.719,0.683,0.795,0.67,0.205,0.212,0.173,0.121,0.108,0.743,0.916,0.869,0.854,0.776
NCI-H23,0.561,,0.651,0.554,0.545,0.502,,0.443,0.638,0.557,0.503,0.529,0.37,0.252,0.23,0.944,,0.865,0.938,1.07
NCI-H1944,1.15,1.12,1.23,0.922,1.07,1.12,1.04,1.11,0.881,1.15,0.36,0.334,0.305,0.233,0.253,0.875,0.903,0.938,0.806,0.761
NCI-H520,0.911,1.1,0.85,1.04,0.955,0.744,0.899,0.704,0.727,0.728,0.299,0.235,0.234,0.195,0.184,0.625,0.756,0.76,0.772,0.745

Cell Line,relative viability (AZ505 + Linsitinib; first compound 0.08 µM),relative viability (AZ505 + Linsitinib; first compound 0.253 µM),relative viability (AZ505 + Linsitinib; first compound 0.8 µM),relative viability (AZ505 + Linsitinib; first compound 2.53 µM),relative viability (AZ505 + Linsitinib; first compound 8 µM),relative viability (AZ505 + Crizotinib; first compound 0.08 µM),relative viability (AZ505 + Crizotinib; first compound 0.253 µM),relative viability (AZ505 + Crizotinib; first compound 0.8 µM),relative viability (AZ505 + Crizotinib; first compound 2.53 µM),relative viability (AZ505 + Crizotinib; first compound 8 µM),relative viability (Dactolisib + Pictilisib; first compound 0.002 µM),relative viability (Dactolisib + Pictilisib; first compound 0.006325 µM),relative viability (Dactolisib + Pictilisib; first compound 0.02 µM),relative viability (Dactolisib + Pictilisib; first compound 0.06325 µM),relative viability (Dactolisib + Pictilisib; first compound 0.2 µM),relative viability (AZ505 + Foretinib; first compound 0.08 µM),relative viability (AZ505 + Foretinib; first compound 0.253 µM),relative viability (AZ505 + Foretinib; first compound 0.8 µM),relative viability (AZ505 + Foretinib; first compound 2.53 µM),relative viability (AZ505 + Foretinib; first compound 8 µM)
A549,0.452,0.503,0.622,0.565,0.562,0.661,0.849,0.692,0.776,0.608,0.544,0.356,0.3,0.145,0.112,0.895,1.06,0.812,1.03,1.06
NCI-H460,0.654,0.899,0.674,0.716,0.817,0.78,1.08,0.898,0.784,0.782,0.423,0.355,0.289,0.302,0.306,0.976,1.01,0.982,1.03,0.966
EKVX,0.963,1.15,0.951,1.04,1.06,0.777,1.05,0.926,0.798,1.02,0.402,0.433,0.37,0.293,0.241,0.586,0.801,0.827,0.433,0.75
NCI-H358,0.733,0.689,0.689,0.752,0.669,0.566,0.572,0.551,0.536,0.371,0.345,0.302,0.337,0.196,0.215,0.573,0.732,0.629,0.549,0.59
EPLC-272H,0.922,1.14,1.04,1.34,1.33,0.714,0.865,0.927,0.985,0.934,0.316,0.239,0.332,0.373,0.24,,0.704,0.635,0.569,0.698
NCI-H1563,1.24,1.32,1.13,1.29,1.15,0.831,0.807,0.805,0.848,0.809,0.682,0.624,0.625,0.651,0.573,0.928,0.965,0.902,0.866,0.93
NCI-H2126,0.681,0.724,0.721,0.711,0.68,0.98,1.05,0.982,1.03,1.08,0.563,0.461,0.434,0.425,0.368,0.892,1.16,1.19,1.1,1.13
LXF-289,0.884,,0.973,0.943,0.96,0.738,,0.812,0.788,0.762,0.9,0.851,0.749,0.673,0.613,0.887,0.972,0.923,0.96,0.956
NCI-H2009,1.1,1.22,1.12,1.11,1.15,0.989,1.03,0.976,1,0.976,0.961,0.853,0.727,0.498,0.322,1.18,1.21,1.19,1.17,1.17
NCI-H2405,0.585,0.639,0.62,0.563,0.714,0.634,0.596,0.586,0.565,0.63,0.343,0.475,0.423,0.311,0.278,0.755,0.776,0.746,0.767,0.746
NCI-H1755,0.968,0.984,0.924,0.985,0.974,0.767,0.928,0.907,0.87,0.777,0.47,0.471,0.451,0.368,0.274,0.817,0.913,0.893,0.93,0.9
HCC-78,,0.642,0.571,0.619,0.7,,0.397,0.373,0.341,0.389,0.225,0.22,0.195,0.206,0.193,0.575,0.631,0.578,0.568,0.644
LOU-NH91,0.838,0.92,0.857,0.915,0.962,0.713,0.723,0.722,0.778,0.72,0.586,0.499,0.525,0.494,0.496,0.872,0.931,0.909,0.869,0.968
IA-LM,0.497,0.572,0.701,0.597,0.643,0.695,0.769,0.861,0.75,1.07,0.371,0.331,0.219,0.116,0.0809,0.921,1.21,1.07,1.12,1.42
NCI-H3122,0.963,1.03,0.911,1.01,0.967,0.255,0.275,0.299,0.268,0.294,0.59,0.608,0.575,0.442,0.336,0.889,0.993,0.837,0.964,1.05
HCC-827,0.923,0.958,0.856,0.977,0.964,0.865,0.854,0.913,0.918,0.948,1.28,0.997,0.932,0.654,0.63,0.891,1.08,1.02,1.08,1.09

# Reference: the supplement of paper PMC10307832
